Legend:
Format in all cases: in vivo
[1] = tested on: silicosis model mice; assay: Pulmonary function indices in SiO2-induced silicosis model mice; details: oral, 28 days, 2 h after final administration, vs model group
Method: (§1) After acclimatization, 6-8-week-old male C57BL/6J mice were intratracheally instilled 40 μL of SiO2 suspension (600 mg/kg) on Day 1 (D1) to establish the silicosis model. On the same day (D1), the animals were randomly divided into 3 groups based on body weight and administered either the vehicle (model group) or Compound 007 (100 mg/kg or 150 mg/kg, once daily) via oral gavage for 28 consecutive days. A normal control group was also established, intratracheally instilled 40 μL of saline on D1 and orally administered sterile water.
Two hours after the final administration, mouse pulmonary function indices were measured.

[2] = tested on: silicosis model mice; assay: Inflammation scoring (H&E staining, Szapiel's criteria) in lung tissue of silicosis model mice; details: oral gavage, 28 days, score 0 to 3, model group 2.22 ± 0.28
Method: as §1
Lung tissues from all mice were collected, sectioned, and subjected to Masson's Trichrome staining and H&E staining for silicotic nodule scoring and inflammation scoring. Silicotic nodule scoring was performed using the King's five-point scale [Zhujie Cao, et al., Acta Pharmacologica Sinica, 2021], where the severity of silicotic nodules in lung tissue was scored from 0 to 5, with higher scores indicating more severe nodulation. […]

[3] = tested on: silicosis model mice; assay: Silicotic nodule scoring (Masson's Trichrome staining, King's five-point scale) in lung of silicosis model mice; details: 28 days; for silica-induced nodule formation and collagen fiber deposition: oral, Masson's Trichrome staining; for Silicotic Nodule Score (Mean ± SEM): oral gavage, score 0 to 5, model group 1.08 ± 0.27
Method: as §1
Lung tissues from all mice were collected, sectioned, and subjected to Masson's Trichrome staining and H&E staining for silicotic nodule scoring and inflammation scoring. Silicotic nodule scoring was performed using the King's five-point scale [Zhujie Cao, et al., Acta Pharmacologica Sinica, 2021], where the severity of silicotic nodules in lung tissue was scored from 0 to 5, with higher scores indicating more severe nodulation. H&E pathological scoring followed Szapiel's inflammation scoring criteria, where the degree of inflammatory cell infiltration in lung tissue was scored from 0 to 3, with higher scores indicating greater inflammation in the lung tissue (0: no inflammation or alveolitis: 1: mild, mononuclear cell infiltration with thickened alveolar septa, localized involvement, pleural lesions involving less than 20% of the lung, and well-preserved alveolar structure; 2: moderate, more extensive alveolitis involving 20%-50% of the lung, primarily pleural lesions; 3: severe, diffuse alveolitis involving over 50% of the lung, occasionally with mononuclear cell infiltration in the alveoli and interstitium and/or some hemorrhagic areas within the alveoli).

[4] = tested on: TGF-β; assay: TGF-β detection in BALF of silicosis model mice; details: oral, 28 days, vs model group
Method: as §1
After the administration was completed, the animals were euthanized, and bronchoalveolar lavage fluid (BALF) was collected from randomly selected animals in each group for TGF-β detection.

[5] = tested on: silicosis model mice; assay: Mortality during 28-day dosing in silicosis model mice; details: 100 mg/kg or 150 mg/kg once daily, oral gavage, 28 consecutive days
Method: as §1

Cn1c(C(=O)N2CC(F)(F)C2)cc2ccc(-c3nccc(Nc4ccc(-c5cn[nH]c5)cc4)n3)cc21 [Compound 007]
inspiratory capacity ([1]; 100 mg/kg daily, p<0.05): significantly increased
respiratory system elastance ([1]; 100 mg/kg daily, p<0.05): decreased
respiratory system resistance ([1]; 100 mg/kg daily, p<0.05): reduced
inspiratory capacity ([1]; 150 mg/kg daily, p<0.01): significantly increased
respiratory system elastance ([1]; 150 mg/kg daily, p<0.05): decreased
respiratory system resistance ([1]; 150 mg/kg daily, p<0.05): reduced
Inflammation Score (Mean ± SEM) ([2]; 100 mg/kg once daily): 1.22 ± 0.15
Inflammation Score (Mean ± SEM) ([2]; 150 mg/kg once daily): 1.22 ± 0.22
silica-induced nodule formation and collagen fiber deposition ([3]; 100 mg/kg daily): reduced
Silicotic Nodule Score (Mean ± SEM) ([3]; 100 mg/kg once daily): 0.32 ± 0.06
silica-induced nodule formation and collagen fiber deposition ([3]; 150 mg/kg daily): reduced
Silicotic Nodule Score (Mean ± SEM) ([3]; 150 mg/kg once daily): 0.35 ± 0.09
TGF-β levels in BALF ([4]; 100 mg/kg daily, p<0.001): significantly reduced
TGF-β levels in BALF ([4]; 150 mg/kg daily, p<0.0001): significantly reduced
mortality during the dosing period [5]: No mortality was observed

Source: patent publication US20260137682A1, “METHOD FOR TREATING PNEUMOCONIOSIS” (Beijing Tide Pharmaceuticals Co., Ltd., priority 2022, published 2026)
